Tested on: Silverleaf Whitefly (Bemisia argentifolii)
Assay: Insecticidal test against silverleaf whitefly on cabbage seedlings (spray)
Format: in vivo
Conditions: spray on infested cabbage seedlings, total of adults and larvae, 9 days after treatment
Description: Insecticidal Test Against Silverleaf Whitefly (Bemisia argentifolii)
To each of an aqueous dilution in a designated concentration of an emulsifiable concentrate of Compound A (commercial name: Lano EC, manufactured by Sumitomo Chemical Co., Ltd.) and a flowable of Compound B (commercial name: Sanmite flowable, manufactured by Nissan Chemical Industries, Ltd.), and a mixture of the emulsifiable concentrate of Compound A in a designated concentration with the flowable of Compound B in a designated concentration, a spreading agent (Shin-Rino, manufactured by Nihon Nohyaku Co., Ltd.) was added to make the amount of the spreading agent to 1/3000 of volume to prepare a spray solution.
Cabbage seedlings planted in 3 ounces plastic cup were placed in a net cage containing many living silverleaf whiteflies for 24 hours, so that silverleaf whiteflies became parasitic on the cabbage seedlings. Each of the above-prepared test solutions was sprayed with a spray gun. The number of silverleaf whiteflies (i.e., the total number of adults and larvae) surviving on the cabbage seedlings was examined just before and after 9 days from the treatment.

Structure (SMILES)	Number of surviving insects after 9 days (50 ppm active ingredient)	Number of surviving insects after 9 days (12.5 ppm active ingredient)	Number of surviving insects after 9 days (100 ppm active ingredient)
CC(COc1ccc(Oc2ccccc2)cc1)Oc1ccccn1 (stereo not shown) [Compound A, 4-phenoxyphenyl 2-(2-pyridyloxy)propyl ether]	30	–	–
CC(C)(C)c1ccc(CSc2cnn(C(C)(C)C)c(=O)c2Cl)cc1 [Compound B, 2-tert-butyl-5-(4-tert-butylbenzylthio)-4-chloropyridazin-3(2H)-one]	10	155	13

Reference: patent US6905699B2, “Insecticides” (Sumitomo Chemical Company, Limited, priority 2000, dated 2005)
